Source: patent US11219621B2, “Methods for treating immunodeficiency disease” (X4 Pharmaceuticals, Inc., priority 2015, dated 2022)

Key:
[1] = target: T1, CXCR3 (Homo sapiens, UniProt P49682); conditions: cited from earlier work
T1 construct: expressed in transfected cells
T1 sequence (P49682 1-368): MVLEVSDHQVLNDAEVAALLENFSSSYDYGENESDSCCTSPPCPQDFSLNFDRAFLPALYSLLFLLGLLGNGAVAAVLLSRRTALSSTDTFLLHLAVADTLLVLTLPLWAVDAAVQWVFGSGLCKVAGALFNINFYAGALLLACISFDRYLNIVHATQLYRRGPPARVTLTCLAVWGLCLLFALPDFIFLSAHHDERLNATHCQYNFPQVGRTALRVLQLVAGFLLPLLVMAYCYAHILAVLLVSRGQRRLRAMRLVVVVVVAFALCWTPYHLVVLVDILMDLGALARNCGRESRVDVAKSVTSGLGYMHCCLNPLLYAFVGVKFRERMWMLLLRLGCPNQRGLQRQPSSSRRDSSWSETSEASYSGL

[2] = human, in vivo
[3] = target: T2, CCR4 (Homo sapiens, UniProt P51679); conditions: cited from earlier work
T2 construct: expressed in transfected cells
T2 sequence (P51679 1-360): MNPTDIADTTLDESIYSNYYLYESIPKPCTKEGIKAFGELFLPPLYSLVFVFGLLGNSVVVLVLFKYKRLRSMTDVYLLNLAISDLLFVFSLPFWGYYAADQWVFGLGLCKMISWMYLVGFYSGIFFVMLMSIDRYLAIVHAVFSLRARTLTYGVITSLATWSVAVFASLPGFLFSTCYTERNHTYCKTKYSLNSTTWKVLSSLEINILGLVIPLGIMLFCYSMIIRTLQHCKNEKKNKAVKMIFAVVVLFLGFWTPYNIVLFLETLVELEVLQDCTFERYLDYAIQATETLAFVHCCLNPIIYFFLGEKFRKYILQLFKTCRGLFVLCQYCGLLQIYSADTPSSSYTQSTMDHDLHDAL

[4] = target: T3, CCR7 (Homo sapiens, UniProt P32248); conditions: cited from earlier work
T3 construct: endogenous in cells
T3 sequence (P32248 25-378): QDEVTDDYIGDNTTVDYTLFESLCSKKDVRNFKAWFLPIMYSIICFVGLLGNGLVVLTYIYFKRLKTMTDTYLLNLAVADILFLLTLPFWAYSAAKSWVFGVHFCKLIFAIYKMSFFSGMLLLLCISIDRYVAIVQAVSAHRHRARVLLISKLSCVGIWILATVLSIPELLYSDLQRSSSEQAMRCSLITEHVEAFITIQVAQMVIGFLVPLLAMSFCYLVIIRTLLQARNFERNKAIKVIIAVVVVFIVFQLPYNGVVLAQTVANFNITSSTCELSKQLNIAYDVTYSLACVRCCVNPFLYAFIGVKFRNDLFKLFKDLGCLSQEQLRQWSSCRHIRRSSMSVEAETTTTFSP

[5] = 28-Day GLP oral (capsule) toxicity study in the Beagle dog with 14-day recovery; assay type: in vivo
Method: A 28-Day GLP oral (capsule) toxicology study was conducted with […]-001 in the male and female beagle dog, and hematology effects were observed, with […]-001 administered twice-daily (at least 7 hours apart) by oral capsule for 28 days. A subset of treated animals was evaluated after a 14-day recovery period. [table] [table]

[6] = target: T4, CXCR7 (Homo sapiens, UniProt P25106); design: Inhibition of SDF-1α binding to CXCR7: dose or concentration left out as unconfirmed; conditions: cited from earlier work
T4 construct: expressed in transfected cells

[7] = target: CXCR4 (Homo sapiens, UniProt P61073); conditions: SDF-1α dose/response in calcium flux assay with increasing amounts of X4P-001; cited from earlier work
[8] = target: T5, CCR1 (Homo sapiens, UniProt P32246); conditions: cited from earlier work
T5 construct: expressed in transfected cells; host or cells: HEK293F
T5 sequence (P32246 1-355): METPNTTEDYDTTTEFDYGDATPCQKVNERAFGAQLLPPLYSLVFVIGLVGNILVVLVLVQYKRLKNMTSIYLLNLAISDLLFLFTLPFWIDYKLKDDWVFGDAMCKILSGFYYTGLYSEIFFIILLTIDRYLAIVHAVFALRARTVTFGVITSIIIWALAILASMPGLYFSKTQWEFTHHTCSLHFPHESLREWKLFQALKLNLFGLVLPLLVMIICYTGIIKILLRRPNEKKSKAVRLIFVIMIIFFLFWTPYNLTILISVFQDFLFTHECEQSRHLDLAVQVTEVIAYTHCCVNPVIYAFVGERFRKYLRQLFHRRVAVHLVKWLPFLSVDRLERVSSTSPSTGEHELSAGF

[9] = F, 10 mg/kg/d, termination, †p < 0.05
[10] = F, 30 mg/kg/d, termination, †p < 0.05
[11] = F, 100 mg/kg/d, termination, †p < 0.05
[12] = M, 100 mg/kg/d, termination, †p < 0.05

T4 sequence (P25106 whole entry): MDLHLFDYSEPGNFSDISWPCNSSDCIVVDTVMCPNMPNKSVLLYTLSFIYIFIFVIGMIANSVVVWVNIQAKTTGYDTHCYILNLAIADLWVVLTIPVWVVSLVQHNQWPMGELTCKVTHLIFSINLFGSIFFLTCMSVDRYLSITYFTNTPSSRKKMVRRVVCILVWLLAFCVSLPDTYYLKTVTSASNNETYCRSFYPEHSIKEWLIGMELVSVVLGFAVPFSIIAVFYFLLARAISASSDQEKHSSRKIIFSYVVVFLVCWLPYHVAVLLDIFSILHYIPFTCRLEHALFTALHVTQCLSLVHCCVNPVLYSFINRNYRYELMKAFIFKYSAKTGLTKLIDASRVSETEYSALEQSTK
Chain of CXCR4 (P61073 whole entry): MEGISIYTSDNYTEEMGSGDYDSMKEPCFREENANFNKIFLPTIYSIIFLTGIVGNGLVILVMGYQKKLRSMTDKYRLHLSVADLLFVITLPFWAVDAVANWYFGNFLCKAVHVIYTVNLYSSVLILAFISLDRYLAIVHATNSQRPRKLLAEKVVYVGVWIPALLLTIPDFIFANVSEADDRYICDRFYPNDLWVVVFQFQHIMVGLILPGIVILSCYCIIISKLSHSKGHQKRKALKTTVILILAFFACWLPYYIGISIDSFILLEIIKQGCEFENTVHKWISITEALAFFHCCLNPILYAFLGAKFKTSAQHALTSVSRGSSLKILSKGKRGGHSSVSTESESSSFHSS

NCCCCN(Cc1nc2ccccc2[nH]1)[C@H]1CCCc2cccnc21 [X4P-001]
IC50 ([1]; CXCR3, HEK293F-CXCR3-Gαq15, IP-10/CXCL10, read-out: IC50 AMD11070): > 50 µM
Inhibitory effect on IP10 mediated calcium flux (CXCR3) [1]: little or no inhibitory effect
Volume of distribution (VL) [2]: high
IC50 ([3]; CCR4, HEK293F-CCR4-Gαq15, TARC/CCL17, read-out: IC50 AMD11070): > 50 µM
Inhibitory effect on TARC mediated calcium flux (CCR4) [3]: little or no inhibitory effect
IC50 ([4]; CCR7, CCRF-CEM, MIP-3β/CCL19, read-out: IC50 AMD11070): > 50 µM
Inhibitory effect on MIP-3β mediated calcium flux (CCR7) [4]: little or no inhibitory effect
Coagulation ([5]; 10 mg/kg/d, termination): No changes
reticulocytes ([5]; 10 mg/kg/d, termination): No changes
Coagulation ([5]; 30 mg/kg/d, termination): No changes
reticulocytes ([5]; 30 mg/kg/d, termination): No changes
Coagulation ([5]; 100 mg/kg/d, termination): No changes
lymphocytes (abs), incr ([5]; F, 10 mg/kg/d, termination): F incr 1.4x
monocytes (abs), incr [5, 9]: F incr 1.6x†
neutrophils (abs), incr [5, 9]: F incr 1.9x†
lymphocytes (abs), incr [5, 10]: F incr 1.6x†
monocytes (abs), incr [5, 10]: F incr 1.9x†
neutrophils (abs), incr [5, 10]: F incr 2.3x†
lymphocytes (abs), incr [5, 11]: F incr 1.4x†
monocytes (abs), incr [5, 11]: F incr 2.4x†
neutrophils (abs), incr [5, 11]: F incr 2.8x†
reticulocytes, decr [5, 11]: F decr 0.24x†
lymphocytes (abs), incr ([5]; M, 10 mg/kg/d, termination): M incr 1.3x;
monocytes (abs), incr ([5]; M, 10 mg/kg/d, termination): M incr 1.2x;
neutrophils (abs), incr ([5]; M, 10 mg/kg/d, termination): M incr 1.2x;
lymphocytes (abs), incr ([5]; M, 30 mg/kg/d, termination): M incr 1.6x;
monocytes (abs), incr ([5]; M, 30 mg/kg/d, termination): M incr 1.3x;
neutrophils (abs), incr ([5]; M, 30 mg/kg/d, termination): M incr 1.2x;
neutrophils (abs), incr ([5]; M, 100 mg/kg/d, termination): M incr 1.8x;
lymphocytes (abs), incr [5, 12]: M incr 2.3x†;
monocytes (abs), incr [5, 12]: M incr 1.9x†;
All hematology results after the 14-day recovery period ([5]; only 100 mg/kg dose group evaluated): returned to within normal levels
IC50 ([6]; CXCR7, Cf2Th.CXCR7, SDF-1α/CXCL12, ligand binding, read-out: IC50 AMD11070): > 10 µM
Inhibitory effect on SDF-1α binding to CXCR7 [6]: little or no inhibitory effect
Inhibition of SDF-1α binding to CXCR7 ([6]; the maximum concentration tested): did not inhibit
Mode of inhibition of CXCR4 [7]: allosteric inhibitor
IC50 ([8]; CCR1, HEK293F-CCR1, MIP-1α/CCL3, read-out: IC50 AMD11070): > 50 µM
Inhibitory effect on MIP1α mediated calcium flux (CCR1) [8]: little or no inhibitory effect
